Results from the supplement of paper PMC13380429.

Columns and labels:
Details in all cases: 72 h
Caco-2 [1] = assay: cell viability relative to DMSO; higher = less toxic
Calu-3 [2] = assay: as above
HepG2 [3] = assay: as above
U2OS [4] = assay: as above
Vero E6 [5] = assay: as above
Caco-2 [6] = assay: relative viability EC50 (midpoint between 100% and the lowest measured viability); higher = less toxic
Calu-3 [7] = assay: as above
HepG2 [8] = assay: as above
U2OS [9] = assay: as above
Vero E6 [10] = assay: as above
Caco-2 [11] = assay: drug sensitivity score (DSS) for viability; higher = more toxic; extreme values may be limits of the assay
Calu-3 [12] = assay: as above
HepG2 [13] = assay: as above
U2OS [14] = assay: as above
Vero E6 [15] = assay: as above

Compound	cell viability (Caco-2 [1]; 1 nM) [%]	cell viability (Caco-2 [1]; 10 nM) [%]	cell viability (Caco-2 [1]; 100 nM) [%]	cell viability (Caco-2 [1]; 1000 nM) [%]	cell viability (Caco-2 [1]; 10000 nM) [%]	cell viability (Calu-3 [2]; 1 nM) [%]	cell viability (Calu-3 [2]; 10 nM) [%]	cell viability (Calu-3 [2]; 100 nM) [%]	cell viability (Calu-3 [2]; 1000 nM) [%]	cell viability (Calu-3 [2]; 10000 nM) [%]	cell viability (HepG2 [3]; 1 nM) [%]	cell viability (HepG2 [3]; 10 nM) [%]	cell viability (HepG2 [3]; 100 nM) [%]	cell viability (HepG2 [3]; 1000 nM) [%]	cell viability (HepG2 [3]; 10000 nM) [%]	cell viability (U2OS [4]; 1 nM) [%]	cell viability (U2OS [4]; 10 nM) [%]	cell viability (U2OS [4]; 100 nM) [%]	cell viability (U2OS [4]; 1000 nM) [%]	cell viability (U2OS [4]; 10000 nM) [%]	cell viability (Vero E6 [5]; 1 nM) [%]	cell viability (Vero E6 [5]; 10 nM) [%]	cell viability (Vero E6 [5]; 100 nM) [%]	cell viability (Vero E6 [5]; 1000 nM) [%]	cell viability (Vero E6 [5]; 10000 nM) [%]	relative viability EC50 (Caco-2 [6]) [µM]	relative viability EC50 (Calu-3 [7]) [µM]	relative viability EC50 (HepG2 [8]) [µM]	relative viability EC50 (U2OS [9]) [µM]	relative viability EC50 (Vero E6 [10]) [µM]	drug sensitivity score (Caco-2 [11])	drug sensitivity score (Calu-3 [12])	drug sensitivity score (HepG2 [13])	drug sensitivity score (U2OS [14])	drug sensitivity score (Vero E6 [15])
CC(C)(C)C(=O)/C(=N/c1ccc(Cl)cc1)NNc1ccc(Cl)cc1	82.3	91.6	91.4	96.6	83.9	97.8	107	98.8	98.6	102	105	95	95.5	95.3	97.6	96.7	107	102	103	94	97.5	99.3	102	97.2	107	> 10	> 10	> 10	> 10	> 10	0	0	0	0	0
CC(C)NC(=O)c1ccc(C#Cc2ccncc2)cn1	101	90.3	99.1	92.4	95.4	90.1	95.8	99.9	99	114	104	102	98.1	96.7	98.1	95.1	98.3	97.1	104	102	100	96.1	92.2	94.5	101	> 10	> 10	> 10	> 10	> 10	0	0	0	0	0
CCCOCCn1c(=O)c(N2CCN(CCO)CC2)nc2cnc(-c3ccc(OC)nc3)cc21	102	92.3	94.4	86.8	93.6	99.5	88.8	98.9	94.2	104	109	105	98.8	104	87.1	95.5	97.4	103	95.5	99.8	109	107	100	107	92.8	> 10	> 10	> 10	> 10	> 10	0.1	0	0	0	0
CCNC(=O)c1n[nH]c(-c2cc(Cl)c(O)cc2O)c1-c1ccc(OC)cc1	95.3	101	94.4	83.8	32.7	99.8	88.5	96.1	85.8	39.2	104	94.2	105	31.3	2	93.7	99.1	99.5	78.7	4.7	100	95.7	100	78.5	37.8	1.58	1.61	0.714	1.64	1.29	6.2	5.6	13.3	8.6	6.5
COC(=O)C(Cc1ccc(OCCn2c(=O)sc3cc(C(=O)c4ccccc4)ccc32)cc1)C(=O)OC	100	93	101	109	101	94.4	109	97.7	104	118	95.5	101	98.7	95.1	102	100	95.1	95.6	106	105	93.7	96.7	89.2	81.6	85.5	> 10	> 10	> 10	> 10	> 10	0	0	0	0	2.1
COc1cc(C(=O)NCC2(N(C)C)CCCC2)cc(OC)c1OCc1ccccc1	95.5	98.1	103	97.3	93.5	94.3	92.1	96.7	103	85.8	97.3	106	101	88.8	89.6	100	104	97	104	95.9	104	99.9	107	99.4	95.8	> 10	> 10	> 10	> 10	> 10	0	0.1	0.3	0	0
C[C@@H]1CN(Cc2ncccn2)C[C@H]1c1nc2c(cnn2C2CCOCC2)c(=O)[nH]1	94.4	92.4	96	94.7	107	98.5	100	105	111	93.7	99.2	94	100	96.5	107	98.2	102	102	103	99.9	93.6	97.7	93.7	96	103	> 10	> 10	> 10	> 10	> 10	0	0	0	0	0
C[C@H](NC[C@H](O)CP(=O)(O)Cc1ccccc1)c1ccc(Cl)c(Cl)c1	104	100	95.9	99.5	89.8	102	107	95.3	100	106	96.9	92.4	94.8	80.1	95	96.5	101	94.6	97.9	94.3	99.4	96.8	98.1	94.8	98.1	> 10	> 10	> 10	> 10	> 10	0	0	0	0	0
Cc1ccc(-c2n[nH]c3c2C(c2cccc(O)c2)N(c2ccc(C(=O)O)cc2)C3=O)cc1 (stereo not given)	93.4	99.2	87	100	100	92	105	98.6	99.9	88.2	111	101	114	93.4	103	90.5	96.2	99.1	99.7	98.1	102	104	101	95.8	101	> 10	> 10	> 10	> 10	> 10	0	0	0	0	0
Cc1nc2ccc(NC(=O)Nc3ccnc4cccnc34)cc2o1	94.9	92.2	98	89.6	76.1	102	103	94.5	92.7	90.3	98.9	102	94.7	92.8	80.7	101	93	99.3	96.4	96.4	97.6	98.8	90.9	102	93.2	> 10	> 10	> 10	> 10	> 10	1.6	0	0.8	0	0
Cn1c2c(c3ccccc31)CCNCC2	109	98.6	102	97.9	97.1	96.7	101	99.3	103	96.8	93	98.3	93.1	103	98.4	100	94.4	98.3	95.9	104	102	103	104	108	99.6	> 10	> 10	> 10	> 10	> 10	0	0	0	0	0
Cn1cc(C(=O)C(=O)N[C@H]2CN3CCC2CC3)c2ccccc21	95.7	99.6	104	99.9	110	99.9	102	98.9	100	94.5	108	94.2	114	95.3	96.9	96.8	107	99.2	101	96.1	112	114	105	97.9	98.5	> 10	> 10	> 10	> 10	> 10	0	0	0	0	0
N#Cc1cc(CN2CCC(Nc3ncnc4sc(Cl)cc34)CC2)ccc1F	98	98.7	91.2	98.8	79.7	104	106	103	97.7	87.7	97.6	97.3	107	78.6	29.1	96.9	98.6	96.3	103	89.1	102	98.1	103	102	93.4	> 10	> 10	1.4	> 10	> 10	0.8	0.2	7.1	0	0
Clc1ccc(C(c2ccc(Cl)cc2)C(Cl)(Cl)Cl)cc1 [4,4'-DDT]	99.1	102	105	95.2	97.8	99.1	110	93	105	95.6	98.5	104	97.5	95.8	98.2	103	101	100	97.3	106	103	105	105	102	99.9	> 10	> 10	> 10	> 10	> 10	0	0	0	0	0
